Reference: patent US20210254056A1, “IDENTIFICATION AND TARGETED MODULATION OF GENE SIGNALING NETWORKS” (CAMP4 THERAPEUTICS CORPORATION, priority 2017, published 2021)

Tested on: hepatocytes
Test: RNA-seq of hepatocytes treated with Phase III failure compounds
Description: RNA-seq was performed to determine the effects of the compounds on hepatocytes.
Significance was determined by the criteria of FPKM≥0.5, a log 2(fold-change)≥1, and a […].

## C=CCNC1=C2C[C@@H](C)C[C@H](OC)[C@H](O)[C@@H](C)/C=C(\C)[C@H](OC(N)=O)[C@@H](OC)/C=C\C=C(/C)C(=O)NC(=CC1=O)C2=O [17-MG (Tanespimycin), Tanespimycin]
  RNA-seq results, CYP2B6 expression: 1.32
  RNA-seq results, CYP2C19 expression: 0.34
  RNA-seq results, CYP2D6 expression: 0.06
  RNA-seq results, CYP3A4 expression: 2.50
  RNA-seq results, CYP7B1 expression: 0.43
  RNA-seq results, CYP39A1 expression: 1.38
  RNA-seq results: CYP2B6 expression: 0.2
  RNA-seq results: CYP2C19 expression: −1.4
  RNA-seq results: CYP2D6 expression: 0.27
  RNA-seq results: CYP3A4 expression: 0.96
  RNA-seq results: CYP7B1 expression: −1.05
  RNA-seq results: CYP39A1 expression: −0.62
Gene A1BG, hepatocytes
  RNA-seq results: A1BG expression: −0.10
Gene AGTR1, hepatocytes
  RNA-seq results: AGTR1 expression: −0.03
Gene AGXT, hepatocytes
  RNA-seq results: AGXT expression: 0.27
Gene AHI1, hepatocytes
  RNA-seq results: AHI1 expression: 0.39
Gene AMPD3, hepatocytes
  RNA-seq results: AMPD3 expression: 1.15
Gene AMT, hepatocytes
  RNA-seq results: AMT expression: 0.31
Gene ANGPTL3, hepatocytes
  RNA-seq results: ANGPTL3 expression: 0.06
Gene ANKS4B, hepatocytes
  RNA-seq results: ANKS4B expression: 1.12
Gene ANKS6, hepatocytes
  RNA-seq results: ANKS6 expression: −0.15
Gene ANPEP, hepatocytes
  RNA-seq results: ANPEP expression: −0.06
Gene AOC2, hepatocytes
  RNA-seq results: AOC2 expression: 0.24
Gene APOA2, hepatocytes
  RNA-seq results: APOA2 expression: −0.64
Gene APOA5, hepatocytes
  RNA-seq results: APOA5 expression: 0.07
Gene APOB, hepatocytes
  RNA-seq results: APOB expression: 2.13
Gene COG5, hepatocytes
  RNA-seq results: COG5 expression: −1.94
Gene COG6, hepatocytes
  RNA-seq results: COG6 expression: −0.28
Gene COL1A1, hepatocytes
  RNA-seq results: COL1A1 expression: 0.45
Gene COX6A1, hepatocytes
  RNA-seq results: COX6A1 expression: 0.27
Gene CP, hepatocytes
  RNA-seq results: CP expression: 0.19
Gene CPS1, hepatocytes
  RNA-seq results: CPS1 expression: −0.79
Gene CPT1A, hepatocytes
  RNA-seq results: CPT1A expression: −1.18
Gene CPT2, hepatocytes
  RNA-seq results: CPT2 expression: 1.3
Gene CROT, hepatocytes
  RNA-seq results: CROT expression: 0.23
Gene CSPP1, hepatocytes
  RNA-seq results: CSPP1 expression: −0.45
Gene CTC1, hepatocytes
  RNA-seq results: CTC1 expression: 0.65
Gene CTDSP2, hepatocytes
  RNA-seq results: CTDSP2 expression: −0.36
Gene CTH, hepatocytes
  RNA-seq results: CTH expression: 1.32
Gene CTNS, hepatocytes
  RNA-seq results: CTNS expression: −0.39
Gene CTSF, hepatocytes
  RNA-seq results: CTSF expression: 0.01
Gene CTSK, hepatocytes
  RNA-seq results: CTSK expression: 1.01
Gene CYB5A, hepatocytes
  RNA-seq results: CYB5A expression: −0.54
Gene CYB5R3, hepatocytes
  RNA-seq results: CYB5R3 expression: −0.57
Gene CYP27A1, hepatocytes
  RNA-seq results: CYP27A1 expression: −0.12
Gene DAO, hepatocytes
  RNA-seq results: DAO expression: −0.79
Gene DBT, hepatocytes
  RNA-seq results: DBT expression: −0.27
Gene DCDC2, hepatocytes
  RNA-seq results: DCDC2 expression: −2.14
Gene DCXR, hepatocytes
  RNA-seq results: DCXR expression: −0.21
Gene FABP1, hepatocytes
  RNA-seq results: FABP1 expression: −0.95
Gene FADD, hepatocytes
  RNA-seq results: FADD expression: −0.41
Gene FAM111A, hepatocytes
  RNA-seq results: FAM111A expression: 0.93
Gene FAM111B, hepatocytes
  RNA-seq results: FAM111B expression: −1.24
Gene FAN1, hepatocytes
  RNA-seq results: FAN1 expression: 0.32
Gene FARS2, hepatocytes
  RNA-seq results: FARS2 expression: −3
Gene FASLG, hepatocytes
  RNA-seq results: FASLG expression: −1.15
Gene FGA, hepatocytes
  RNA-seq results: FGA expression: 0.46
Gene FGD1, hepatocytes
  RNA-seq results: FGD1 expression: −1.37
Gene FGFR2, hepatocytes
  RNA-seq results: FGFR2 expression: −2.48
Gene FIG4, hepatocytes
  RNA-seq results: FIG4 expression: −0.69
Gene FIS1, hepatocytes
  RNA-seq results: FIS1 expression: −0.22
Gene FTCD, hepatocytes
  RNA-seq results: FTCD expression: −1.66
Gene FTH1, hepatocytes
  RNA-seq results: FTH1 expression: −0.49
Gene FUCA1, hepatocytes
  RNA-seq results: FUCA1 expression: 0.43
Gene FXN, hepatocytes
  RNA-seq results: FXN expression: −1.04
Gene G6PC3, hepatocytes
  RNA-seq results: G6PC3 expression: −0.38
Gene G6PC, hepatocytes
  RNA-seq results: G6PC expression: −0.03
Gene G6PD, hepatocytes
  RNA-seq results: G6PD expression: 1.7
Gene GALK1, hepatocytes
  RNA-seq results: GALK1 expression: −0.7
Gene GALK2, hepatocytes
  RNA-seq results: GALK2 expression: −1.47
Gene GALT, hepatocytes
  RNA-seq results: GALT expression: −0.43
Gene GATA6, hepatocytes
  RNA-seq results: GATA6 expression: −0.77
Gene GATM, hepatocytes
  RNA-seq results: GATM expression: −1.11
Gene GBA, hepatocytes
  RNA-seq results: GBA expression: −0.38
Gene GBE1, hepatocytes
  RNA-seq results: GBE1 expression: −2.25
Gene GCH1, hepatocytes
  RNA-seq results: GCH1 expression: 0.43
Gene GCKR, hepatocytes
  RNA-seq results: GCKR expression: −0.16
Gene GCLC, hepatocytes
  RNA-seq results: GCLC expression: −0.18
Gene GOSH, hepatocytes
  RNA-seq results: GOSH expression: −1.49
Gene RRM2B, hepatocytes
  RNA-seq results: RRM2B: 1.19
Gene RSAD1, hepatocytes
  RNA-seq results: RSAD1: −0.23
Gene SAMHD1, hepatocytes
  RNA-seq results: SAMHD1: −0.05
Gene SC5D, hepatocytes
  RNA-seq results: SC5D: 1.56
Gene SCARB1, hepatocytes
  RNA-seq results: SCARB1: −0.35
Gene SCN9A, hepatocytes
  RNA-seq results: SCN9A: −0.22
Gene SDCCAG8, hepatocytes
  RNA-seq results: SDCCAG8: 0.11
Gene SEPN1, hepatocytes
  RNA-seq results: SEPN1: −0.07
Gene SERAC1, hepatocytes
  RNA-seq results: SERAC1: 0.26
Gene SERPINA1, hepatocytes
  RNA-seq results: SERPINA1: −0.05
Gene SERPING1, hepatocytes
  RNA-seq results: SERPING1: 0.28
Gene SERPINI1, hepatocytes
  RNA-seq results: SERPINI1: 0.22
Gene SETBP1, hepatocytes
  RNA-seq results: SETBP1: 0.54
Gene SFXN4, hepatocytes
  RNA-seq results: SFXN4: −0.14
Gene SLC10A1, hepatocytes
  RNA-seq results: SLC10A1: 1.13
Gene SLC10A3, hepatocytes
  RNA-seq results: SLC10A3: −1.25
Gene SLC10A5, hepatocytes
  RNA-seq results: SLC10A5: 2.20
Gene SLC10A7, hepatocytes
  RNA-seq results: SLC10A7: 0.55
Gene SLC11A2, hepatocytes
  RNA-seq results: SLC11A2: 0.65
Gene SLC19A1, hepatocytes
  RNA-seq results: SLC19A1: −0.71
Gene SLC19A2, hepatocytes
  RNA-seq results: SLC19A2: 0.62
Gene SLC19A3, hepatocytes
  RNA-seq results: SLC19A3: 0.68
Gene SLC22A1, hepatocytes
  RNA-seq results: SLC22A1: 0.08
Gene SLC22A5, hepatocytes
  RNA-seq results: SLC22A5: −0.72
Gene SLC25A1, hepatocytes
  RNA-seq results: SLC25A1: −0.29
Gene SLC25A10, hepatocytes
  RNA-seq results: SLC25A10: −0.45
Gene SLC25A12, hepatocytes
  RNA-seq results: SLC25A12: −0.06
Gene SLC25A13, hepatocytes
  RNA-seq results: SLC25A13: 0.72
Gene SLC25A15, hepatocytes
  RNA-seq results: SLC25A15: 0.58
Gene SLC25A19, hepatocytes
  RNA-seq results: SLC25A19: −0.70
Gene SLC25A20, hepatocytes
  RNA-seq results: SLC25A20: −0.52
Gene SLC25A29, hepatocytes
  RNA-seq results: SLC25A29: −1.07
Gene SLC25A32, hepatocytes
  RNA-seq results: SLC25A32: −0.50

## CN[C@@]1(C)[C@@H]2CC[C@@H](C2)C1(C)C [TC-5214]
  Number (#) of genes having significantly changed expression: 30
